In patent publication US20220112217A1, “PYRAZOLOPYRIMIDINE DERIVATIVE AND USE THEREOF AS PI3K INHIBITOR” (MEDSHINE DISCOVERY INC., priority 2018, published 2022):
pIC50: −log10 of the molar value.

Columns and labels:
Jeko-1 cell = Jeko-1 cell test (IgM-stimulated, phosphorylated AKT readout); assay type: cell-based; details: Homo sapiens, 2 h compound, IgM stimulation 10 min, phospho-AKT
Method: (§1) 7) After incubation, readings at 620 and 665 nm on EnVingen were recorded. • <2> TMD-8 cell viability test • 1) Cell Culture

PI3K beta = PI3K beta (Homo sapiens, UniProt P42338); assay: In vitro enzyme activity assay (ADP-Glo lipid kinase), PI3K beta
PI3K beta, sequence (P42338 whole entry): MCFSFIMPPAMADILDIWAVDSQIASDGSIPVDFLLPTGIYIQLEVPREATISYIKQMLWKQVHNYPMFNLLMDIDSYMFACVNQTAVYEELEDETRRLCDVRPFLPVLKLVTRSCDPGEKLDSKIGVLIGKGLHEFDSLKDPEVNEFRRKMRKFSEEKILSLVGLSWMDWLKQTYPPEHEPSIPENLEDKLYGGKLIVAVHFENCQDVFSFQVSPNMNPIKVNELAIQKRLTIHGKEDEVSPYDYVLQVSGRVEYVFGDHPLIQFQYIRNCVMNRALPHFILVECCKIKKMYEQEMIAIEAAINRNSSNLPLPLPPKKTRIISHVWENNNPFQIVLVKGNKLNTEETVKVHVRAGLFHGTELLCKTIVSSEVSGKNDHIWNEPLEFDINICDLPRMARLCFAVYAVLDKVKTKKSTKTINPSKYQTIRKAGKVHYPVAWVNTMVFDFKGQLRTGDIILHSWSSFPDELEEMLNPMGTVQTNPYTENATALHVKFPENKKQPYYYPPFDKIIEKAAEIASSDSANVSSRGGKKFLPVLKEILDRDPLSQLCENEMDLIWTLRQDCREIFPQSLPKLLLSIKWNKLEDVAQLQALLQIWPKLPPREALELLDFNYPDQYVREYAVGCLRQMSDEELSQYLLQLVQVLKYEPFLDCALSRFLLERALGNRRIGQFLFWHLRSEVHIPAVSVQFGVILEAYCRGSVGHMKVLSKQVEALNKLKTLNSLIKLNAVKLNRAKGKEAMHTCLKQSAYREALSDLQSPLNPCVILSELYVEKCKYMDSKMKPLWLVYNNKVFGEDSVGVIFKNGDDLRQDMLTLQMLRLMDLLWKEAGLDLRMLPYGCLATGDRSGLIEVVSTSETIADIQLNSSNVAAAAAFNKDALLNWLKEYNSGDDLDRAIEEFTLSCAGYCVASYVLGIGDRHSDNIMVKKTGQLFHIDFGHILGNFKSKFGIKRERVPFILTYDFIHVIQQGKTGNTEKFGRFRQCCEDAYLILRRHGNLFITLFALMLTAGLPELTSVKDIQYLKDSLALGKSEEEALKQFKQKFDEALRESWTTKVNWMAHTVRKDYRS
PI3K beta, sequence (P27986 whole entry partner): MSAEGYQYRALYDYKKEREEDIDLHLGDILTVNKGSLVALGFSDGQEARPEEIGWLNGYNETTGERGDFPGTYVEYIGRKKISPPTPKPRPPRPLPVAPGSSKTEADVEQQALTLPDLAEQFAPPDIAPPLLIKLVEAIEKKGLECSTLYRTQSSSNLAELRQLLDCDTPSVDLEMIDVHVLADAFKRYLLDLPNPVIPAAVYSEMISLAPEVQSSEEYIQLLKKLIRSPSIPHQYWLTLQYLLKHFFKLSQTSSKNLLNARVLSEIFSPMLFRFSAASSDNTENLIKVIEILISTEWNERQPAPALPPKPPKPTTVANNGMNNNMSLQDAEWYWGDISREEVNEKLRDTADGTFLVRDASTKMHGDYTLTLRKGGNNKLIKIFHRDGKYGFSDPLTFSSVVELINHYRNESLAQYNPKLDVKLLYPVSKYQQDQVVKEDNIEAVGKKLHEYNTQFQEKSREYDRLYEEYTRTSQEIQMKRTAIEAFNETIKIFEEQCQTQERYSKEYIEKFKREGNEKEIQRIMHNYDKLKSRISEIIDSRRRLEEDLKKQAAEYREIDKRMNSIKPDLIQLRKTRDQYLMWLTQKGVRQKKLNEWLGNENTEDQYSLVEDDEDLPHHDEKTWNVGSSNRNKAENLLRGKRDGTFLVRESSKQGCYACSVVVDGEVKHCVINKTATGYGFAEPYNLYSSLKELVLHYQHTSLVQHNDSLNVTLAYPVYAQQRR
Method: (§2) An appropriate substrate and ATP were incubated at a suitable condition for lipid kinase reaction, followed by a two-step detection of kinase activity using an ADP-Glo™ kit. Step I: The kinase reaction was terminated and residual ATP was completely removed, leaving ADP only; Step II: A kinase assay reagent was added to convert ADP to ATP by a luciferin/luciferase reaction. Finally, a fluorescence output value was detected and converted into kinase activity.
(§3) • 2) Kit: ADP-Glo™ lipid kinase and PIP2:3PS kit (Promega #V1792)
(§4) The mixture was incubated at 23° C. for 20 min • (10) 2 μL of ATP solution was added, and the mixture was centrifuged at 1000 rpm and was shaken to mix well • (11) The plate was covered, shaken for about 30 s, and incubated for 2 h at 23° C. • (12) 5 μL of ADP-Glo reagent containing 10 mM MgCl2 was added • (13) The mixture was centrifuged at 1000 rpm for 10 s, covered and shaken for about 30 s, and incubated at 23° C. for 60 min • (14) 10 μL of kinase assay reagent was added • (15) The mixture was centrifuged at 1000 rpm for 10 s, and incubated at 23° C. for 60 min • (16) Fluorescence values were measured by an Envision system. • 2. […] The mixture was incubated at 37° C./CO2 for 10 min. • 5) The compound was removed by pipette. Lysis buffer was added at 50 μL/well, and the cells wereincubated on a shaker for 30 min. • 6) After the cells were completely lysed, 16 μL of lysate was transferred to a 384-well plate and 4 μL of prepared AC+D2 in the kit was added. (AC: Eu3+-cryptate antibody binds to phosphorylated AKT, while D2 binds to non-phosphorylated AKT) The mixture was incubated at room temperature for 4 h.

PI3K alpha = PI3K alpha (Homo sapiens, UniProt P42336); assay: In vitro enzyme activity assay (ADP-Glo lipid kinase), PI3K alpha
PI3K alpha, sequence (P42336 whole entry): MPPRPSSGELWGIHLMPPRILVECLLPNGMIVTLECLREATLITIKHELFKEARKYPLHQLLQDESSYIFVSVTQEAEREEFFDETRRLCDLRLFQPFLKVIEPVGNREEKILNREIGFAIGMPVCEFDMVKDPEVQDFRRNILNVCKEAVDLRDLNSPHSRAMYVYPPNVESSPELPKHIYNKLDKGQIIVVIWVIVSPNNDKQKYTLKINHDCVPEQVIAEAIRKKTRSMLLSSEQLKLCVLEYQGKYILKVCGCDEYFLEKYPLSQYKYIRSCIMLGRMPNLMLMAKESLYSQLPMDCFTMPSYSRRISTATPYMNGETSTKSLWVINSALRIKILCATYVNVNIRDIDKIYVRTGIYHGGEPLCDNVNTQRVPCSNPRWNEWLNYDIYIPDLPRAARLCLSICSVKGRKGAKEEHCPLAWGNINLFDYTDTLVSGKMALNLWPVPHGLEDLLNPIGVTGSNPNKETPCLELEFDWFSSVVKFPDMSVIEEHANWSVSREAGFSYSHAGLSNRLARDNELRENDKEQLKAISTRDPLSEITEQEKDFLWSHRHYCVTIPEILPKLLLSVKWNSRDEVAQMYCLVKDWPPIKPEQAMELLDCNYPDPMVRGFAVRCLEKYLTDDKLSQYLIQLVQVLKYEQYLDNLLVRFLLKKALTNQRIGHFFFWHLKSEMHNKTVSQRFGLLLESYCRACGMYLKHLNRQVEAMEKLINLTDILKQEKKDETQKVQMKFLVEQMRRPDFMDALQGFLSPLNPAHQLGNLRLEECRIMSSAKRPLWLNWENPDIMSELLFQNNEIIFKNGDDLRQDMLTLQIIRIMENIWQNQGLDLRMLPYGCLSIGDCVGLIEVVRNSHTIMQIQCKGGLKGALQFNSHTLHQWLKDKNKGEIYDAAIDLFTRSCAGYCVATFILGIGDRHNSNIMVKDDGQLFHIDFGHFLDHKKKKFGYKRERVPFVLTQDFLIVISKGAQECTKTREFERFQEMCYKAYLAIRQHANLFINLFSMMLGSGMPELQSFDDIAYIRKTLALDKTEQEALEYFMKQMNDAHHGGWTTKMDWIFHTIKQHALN
PI3K alpha, sequence (P27986 whole entry partner): as the sequence (P27986 whole entry partner) above
Method: as §2, §3, §4

PI3K delta = PI3K delta (Homo sapiens, UniProt O00329); assay: In vitro enzyme activity assay (ADP-Glo lipid kinase), PI3K delta; details: PI3Kδ IC50, ATP 40 μM, PIP2:3PS 50 μM, 120 min;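 also: kinase reaction run at 23 °C, then leftover ATP depleted and the ADP formed turned back into ATP, with the luciferin/luciferase signal read as kinase activity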
PI3K delta, sequence (O00329 whole entry): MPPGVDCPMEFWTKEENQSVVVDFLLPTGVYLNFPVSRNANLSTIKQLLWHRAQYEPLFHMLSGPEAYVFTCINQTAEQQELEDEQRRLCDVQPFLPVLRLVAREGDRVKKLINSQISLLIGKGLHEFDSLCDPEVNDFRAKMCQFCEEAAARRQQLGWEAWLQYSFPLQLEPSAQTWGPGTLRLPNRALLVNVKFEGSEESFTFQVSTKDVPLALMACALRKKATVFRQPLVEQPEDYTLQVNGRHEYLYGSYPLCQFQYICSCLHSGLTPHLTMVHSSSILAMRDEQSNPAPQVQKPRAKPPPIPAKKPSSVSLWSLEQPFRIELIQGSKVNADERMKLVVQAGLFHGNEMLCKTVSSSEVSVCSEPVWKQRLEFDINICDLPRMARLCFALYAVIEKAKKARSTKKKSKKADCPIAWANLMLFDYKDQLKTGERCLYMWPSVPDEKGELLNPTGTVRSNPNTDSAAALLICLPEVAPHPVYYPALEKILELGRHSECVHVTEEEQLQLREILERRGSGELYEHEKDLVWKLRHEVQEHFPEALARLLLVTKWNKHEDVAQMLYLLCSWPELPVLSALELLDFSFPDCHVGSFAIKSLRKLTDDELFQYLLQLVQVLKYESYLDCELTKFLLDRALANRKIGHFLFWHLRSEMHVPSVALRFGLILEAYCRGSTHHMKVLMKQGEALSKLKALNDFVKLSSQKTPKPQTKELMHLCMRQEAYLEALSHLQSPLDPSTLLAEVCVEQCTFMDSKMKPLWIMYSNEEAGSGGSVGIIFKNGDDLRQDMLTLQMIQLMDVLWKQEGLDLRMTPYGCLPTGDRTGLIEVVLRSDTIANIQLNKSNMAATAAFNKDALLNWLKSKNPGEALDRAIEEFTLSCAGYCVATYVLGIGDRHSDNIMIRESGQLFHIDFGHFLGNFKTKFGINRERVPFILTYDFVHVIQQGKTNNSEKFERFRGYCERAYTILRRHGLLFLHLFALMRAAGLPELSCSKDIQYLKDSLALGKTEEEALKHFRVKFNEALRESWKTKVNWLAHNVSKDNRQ
PI3K delta, sequence (P27986 whole entry partner): as the sequence (P27986 whole entry partner) above
Method: as §2, §3
The kit comprises: 1 mM PIP2:3PS, 10× lipid dilution buffer, 1 M magnesium chloride, 10 mM ATP, 10 mM ADP, ADP-Glo reagent, detection buffer and substrate. • 3) Plate: OptiPlate-384, white and transparent (PerkinElmer #6007299) Reagent preparation: • 1) 10x reaction buffer: 500 mM HEPES (4-(2-hydroxyethyl)-1-piperazineethanesulfonic acid), pH 7.5, 500 mM NaCl, 9 mM MgCl2; BSA: 10% stock solution, prepared in-house • 2) Condition for final test system: 1× reaction system: 50 mM HEPES, 50 mM NaCl, 3 mM MgCl2, 0.01% BSA (prepared on the day of experiment), 1% DMSO (v/v) +/−compound • 3) Reaction system: 3 μL of enzyme and substrate mixture (1:1) +2 μL of ATP/MgCl2 mixture +5 μL of ADP-Glo reagent +10 μL detection reagent.
The specific experimental procedures are as follows: • 1) Dilution: 50 nL of 100× compound/DMSO solution were transferred into a test plate using Echo • For PI3Kα, the compound was serially diluted by three fold from the highest concentration 0.111 mM to the 10th concentration. • For PI3Kβ/PI3Kδ/PI3Kγ, the compound was serially diluted by three fold from the highest concentration of 1.11 mM to the 10th concentration. • 2) Kinase reaction: • (1) The target compounds were prepared. 50 nL of 100× compound solution or DMSO was added to the corresponding plate • (2) A 3.33 × reaction buffer was prepared • (3) A 3.33× PIP2:3PS solution were prepared; the PIP2:3PS solution should be thawed by vortex for at least 1 min before use • (4) An ATP solution containing 5.25 mM MgCl2 was prepared • (5) 3.33× PI3Kα/PI3Kβ/PI3Kδ/PI3Kγ solutions were prepared • (6) The lipid kinase solution and PIP2:3PS solution were mixed at a volume ratio of 1:1 • (7) The 3.33 × lipid kinase buffer and PIP2:3PS solution were mixed at a volume ratio of 1:1 • (8) 3 μL of the mixed solution of reaction buffer and PIP2:3PS was added to Columns 1 and 2 of the plate • (9) 3 μL of the mixed solution of the enzyme and PIP2:3PS was added to the wells of the plate other than Columns 1 and 2, and was centrifuged for 10 s (1000 rpm). The mixture was incubated at 23° C. for 20 min • (10) 2 μL of ATP solution was added, and the mixture was centrifuged at 1000 rpm and was shaken to mix well • (11) The plate was covered, shaken for about 30 s, and incubated for 2 h at 23° C. • (12) 5 μL of ADP-Glo reagent containing 10 mM MgCl2 was added • (13) The mixture was centrifuged at 1000 rpm for 10 s, covered and shaken for about 30 s, and incubated at 23° C. for 60 min • (14) 10 μL of kinase assay reagent was added • (15) The mixture was centrifuged at 1000 rpm for 10 s, and incubated at 23° C. for 60 min • (16) Fluorescence values were measured by an Envision system. • 2.

PI3K gamma = PI3K gamma (Homo sapiens, UniProt P48736); assay: In vitro enzyme activity assay (ADP-Glo lipid kinase), PI3K gamma; details: PI3Kγ IC50, ATP 25 μM, PIP2:3PS 50 μM, 120 min
PI3K gamma, sequence (P48736 whole entry): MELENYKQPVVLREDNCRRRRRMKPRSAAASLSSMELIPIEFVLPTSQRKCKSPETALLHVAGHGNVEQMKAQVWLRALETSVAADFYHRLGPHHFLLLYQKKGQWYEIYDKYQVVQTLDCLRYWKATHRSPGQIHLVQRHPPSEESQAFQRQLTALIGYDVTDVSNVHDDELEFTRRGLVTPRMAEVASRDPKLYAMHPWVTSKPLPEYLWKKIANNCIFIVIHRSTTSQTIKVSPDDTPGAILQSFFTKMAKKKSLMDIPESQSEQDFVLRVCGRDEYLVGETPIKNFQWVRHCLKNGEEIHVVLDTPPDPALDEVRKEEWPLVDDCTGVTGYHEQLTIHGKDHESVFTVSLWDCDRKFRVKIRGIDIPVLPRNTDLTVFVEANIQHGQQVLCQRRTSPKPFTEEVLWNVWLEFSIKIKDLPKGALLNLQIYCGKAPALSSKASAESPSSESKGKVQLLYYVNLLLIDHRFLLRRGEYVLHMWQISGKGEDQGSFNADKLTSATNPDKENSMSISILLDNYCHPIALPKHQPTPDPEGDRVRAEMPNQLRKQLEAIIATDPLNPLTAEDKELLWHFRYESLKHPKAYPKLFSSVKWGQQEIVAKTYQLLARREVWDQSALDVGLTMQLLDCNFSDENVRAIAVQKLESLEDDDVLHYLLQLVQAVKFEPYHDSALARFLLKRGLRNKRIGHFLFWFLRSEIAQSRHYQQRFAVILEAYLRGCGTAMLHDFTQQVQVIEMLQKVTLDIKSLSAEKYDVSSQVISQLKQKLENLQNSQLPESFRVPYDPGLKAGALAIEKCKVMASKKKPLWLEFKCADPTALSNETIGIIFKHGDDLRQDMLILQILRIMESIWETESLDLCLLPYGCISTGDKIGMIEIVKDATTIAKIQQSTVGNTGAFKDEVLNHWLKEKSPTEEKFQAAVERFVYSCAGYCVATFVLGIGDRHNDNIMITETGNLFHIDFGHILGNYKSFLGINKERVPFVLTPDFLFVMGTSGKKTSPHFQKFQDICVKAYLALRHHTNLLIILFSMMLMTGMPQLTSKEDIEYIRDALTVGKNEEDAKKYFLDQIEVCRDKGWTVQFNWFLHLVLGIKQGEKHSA
Method: as §2, §3, §4

TMD-8 cell = TMD-8 cell viability test (CellTiter-Glo, 72 h); assay type: cell-based; details: Homo sapiens, TMD8
Method: as §1
Cells were regularly passaged. Cells at logarithmic growth phase were transferred to the plate. • 2) Plating • (1). Cells were stained with trypan blue and viable cells were counted. • (2). Cell concentration was adjusted to 7000 cells/well • (3). 90 μL of cell suspension was added to each well of the plate and cell-free medium was added to blank control wells. • (4). The plate was incubated overnight at 37° C., 5% CO2 and 100% relative humidity in an incubator. • 3) Preparation of Plate Containing Compound Stock
(1). Preparation of plate containing 400× compound stock: Compounds were diluted from the highest concentration gradient to lowest concentration with DMSO. • 4) Preparation of 10× compound working solution and treatment • (1). Preparation of 10× compound working solution: 78 μL of cell culture medium was added to a V-bottom 96-well plate, and 2 μL of compound stock solution was pipetted from the plate containing 400× compound stock into the cell cultures of 96-well plate. 2 μL of DMSO was added to the vehicle control wells and blank control wells. After compounds or DMSO was added, the mixture was well mixed by a pipette. • (2). 10 μL of DMSO-cell culture medium mixture solution was added to the vehicle control wells and blank control wells. The final concentration of DMSO was 0.25%. • (3). The 96-well cell plate was incubated in the incubator for another 72 h. • 5) CellTiter-Glo Luminescent Cell Viability Assay
The following procedure was performed according to the instructions of Promega CellTiter-Glo luminescent cell viability assay kit (Promega-G7573). • (1). CellTiter-Glo buffer was thawed and let stand at room temperature. • (2). The CellTiter-Glo substrate was let stand at room temperature. • (3). The CellTiter-Glo buffer was added to a flask of CellTiter-Glo substrate to dissolve the substrate, thereby preparing a CellTiter-Glo working solution. • (4). The solution was vortexed to completely dissolve the substrate. • (5). The plate was incubated at room temperature for 30 min for equilibration. • (6). 50 μL (equal to half the volume of cell culture medium in each well) of CellTiter-Glo working solution was added to each well. The plate was covered by aluminum foil to avoid light. • (7). The plate was shaken on an orbital shaker for 2 min to induce cell lysis. • (8). The plate was let stand at room temperature for 10 min to stabilize the luminescence signals. • (9). The luminescence signals were detected on 2104 EnVision plate reader.

[1] = Plasma protein binding rate, human; assay type: in vitro ADME; details: read-out: PPB % (plasma protein binding rate) (converted)
[2] = Plasma protein binding rate, mouse; assay type: in vitro ADME; details: read-out: PPB % (plasma protein binding rate) (converted)
[3] = In vivo DMPK study, single dose in female Balb/c mice; details: for half-life / clearance / Vd / bioavailability: female, Balb/c; for half-life / clearance / Vd / bioavailability / Cmax: mouse, plasma; for half-life: 1 mg/kg, note lists it as an intravenous parameter, read-out: T1/2 (half-life) (converted); for half-life / clearance / Vd / bioavailability / Oral DNAUC (dose-normalized area under curve): mice; for clearance / Vd: intravenous 1 mg/kg; for clearance: read-out: Cl (clearance); for Vd: read-out: Vd (apparent volume of distribution); for bioavailability: oral 3 mg/kg vs intravenous 1 mg/kg, read-out: F % (oral bioavailability); for Cmax: oral 3 mg/kg, female Balb/c mice
Method: Objective: To evaluate the plasma concentration of the compounds and pharmacokinetics after a single dose in female Balb/c mice.
Procedures: 8 healthy adult female Balb/c mice were randomized, 4 for intravenous administration and 4 for oral administration. The compounds were mixed with a proper amount of vehicle for intravenous injection (DMSO/PEG200/water (5:45:50 v/v/v)). The mixture was vortexed and treated with ultrasound to give a 1.0 mg/mL clear solution. The clear solution was filtered through a microporous membrane filter for later use. For the oral group, the vehicle was 0.5% MC/0.2% Tween 80. The compound was mixed with the vehicle, and the mixture was vortexed and ultrasonically treated to give 1.0 mg/mL uniform suspension for later use. The mice were administered intravenously at 1 mg/kg or orally at 3 mg/kg. Whole blood was collected at certain time points, and plasma was separated. The drug concentration was measured by LC-MS/MS, and pharmacokinetic parameters were calculated using
Phoenix WinNonlin software (Pharsight, USA).

[4] = tested on: human lymphoma TMD-8 subcutaneous xenograft tumors; assay: In vivo efficacy study, TMD-8 subcutaneous xenograft in CB-17 SCID mice; set-up: species or system CB-17 SCID mouse
Method: In Vivo Efficacy Study • Objectives: To evaluate the efficacy of the compounds on human lymphoma TMD-8 subcutaneous xenograft tumors in a CB-17 SCID mouse model. • Procedures: • (1) Cell Culture • Human lymphoma TMD-8 cells (Shanghai Junrui-UFBN1682) were cultivated in an RPMI 1640 medium containing 10% fetal bovine serum, 100 U/mL penicillin and 100 μg/mL streptomycin through monolayer culture in vitro in an incubator at 37° C./5% CO2. The cells were digested with trypsin-EDTA twice a week for passaging as per conventional practice. When the saturation reached 80%-90%, the cells were collected, counted and grafted. • (2) Tumor Cell Grafting
0.2 mL (1×10^7 cells) of TMD-8 cells (along with matrigel in a volume ratio of 1:1) was subcutaneously grafted on the right back of each mouse, and the mice were randomized when the mean tumor volume was 99 mm^3. • (3) Preparation of Test Compound
Vehicle group: 0.5% MC/0.2% Tween 80/99.3% water.
Test compound group: A certain amount of the compound was dissolved in a corresponding volume of vehicle in a brown flask. The mixture was vortexed to give a uniform suspension or clear solution.
The experimental indices were to investigate whether tumor growth was inhibited or delayed or the tumor was cured. Tumor diameters were measured twice weekly using a vernier caliper. The tumor volume was calculated according to the following formula: V=0.5a x b^2, where a and b represent the long diameter and short diameter of the tumor, respectively.
The efficacy of compounds against tumor was evaluated by TGI (%). TGI (%) refers to the rate of tumor growth inhibition.

[5] = In vivo DMPK study, single dose in female Balb/c mice; details: mouse, plasma, po, 1 mg/kg, (1 mpk)
[6] = 50 mg/kg(D0-D20) combined with ACP-196 50 mg/kg(D0-D17) + 25 mg/kg(D18-D20)
[7] = 100 mg/kg(D0-D21) combined with ACP-196 75 mg/kg(D0-D21)

SMILES	pIC50 (Jeko-1 cell)	pIC50 (PI3K beta)	pIC50 (PI3K alpha)	pIC50 (PI3K delta)	pIC50 (PI3K gamma)	pIC50 (TMD-8 cell)	fraction unbound [1]	fraction unbound [2]	half-life [3] [h]	clearance [3] [mL/min/kg]	Vd [3] [L/kg]	bioavailability [3] [%]	Cmax [3] [nM]	Oral DNAUC (dose-normalized area under curve) [3] [nM · h/mpk]	TGI ([4]; 25 mg/kg(D0-D20) combined with ACP-196 50 mg/kg(D0-D17) + 25 mg/kg(D18-D20)) [%]	TGI [4, 6] [%]	TGI ([4]; 75 mg/kg(D0-D20) combined with ACP-196 50 mg/kg(D0-D17) + 25 mg/kg(D18-D20)) [%]	TGI [4, 7] [%]	Cmax [5] [nM]
COc1ncc(-c2nn(C(C)c3nc4ccc(F)cn4c(=O)c3-c3cccc(F)c3)c3ncnc(N)c23)cc1C#N (single isomer, unassigned) [WX005]	6.08	< 5.00	< 5.00	6.92	5.09	–	–	–	–	–	–	–	–	–	–	–	–	–	–
CC(C)Oc1ccc(-c2nn(C(C)c3nc4ccc(F)cn4c(=O)c3-c3cccc(F)c3)c3ncnc(N)c23)cc1F (single isomer, unassigned) [WX001]	6.21	< 5.00	< 5.00	6.40	6.33	5.53	0.034	0.023	4.8	4.44	2.02	101	1610	7179	108.10	108.14	108.10	103.95	–
COc1ncc(-c2nn(C(C)c3nc4ccc(F)cn4c(=O)c3-c3cccc(F)c3)c3ncnc(N)c23)s1 (single isomer, unassigned) [WX007]	6.90	–	–	8.73	6.73	6.23	0.217	0.086	0.644	36.7	1.75	84.7	1590	674.0	–	–	–	103.16	–
CC(C)n1cc(-c2nn(C(C)c3nc4ccc(F)cn4c(=O)c3-c3cccc(F)c3)c3ncnc(N)c23)cn1 (stereo not drawn) [WX038]	–	–	–	7.40	5.61	5.63	–	–	1.76	14.2	1.28	83.8	–	1825	–	–	–	–	1400
COc1ncc(-c2nn(C(C)c3nc4ccc(F)cn4c(=O)c3-c3cccc(F)c3)c3ncnc(N)c23)cn1 (stereo not drawn) [WX042]	–	–	–	7.33	5.44	5.55	–	–	3.15	5.54	1.43	49.3	2620	2583	–	108.01	–	–	–
CC(C)Oc1ccc(-c2nn(C(C)c3nc4ccc(F)cn4c(=O)c3-c3cccc(F)c3)c3ncnc(N)c23)cn1 (single isomer, unassigned) [WX004]	5.88	< 5.00	< 5.00	6.59	5.91	–	–	–	–	–	–	–	–	–	–	–	–	–	–
CC(C)Oc1ccc(-c2nn([C@@H](C)c3oc4ccc(F)cc4c(=O)c3-c3cccc(F)c3)c3ncnc(N)c23)cc1F [TGR-1202, reference compound]	6.32	< 5.00	< 5.00	–	6.09	5.39	0.003	0.003	5.66	8.54	4.2	91.7	651	3043	–	–	–	103.25	–
COCc1ncc(-c2nn(C(C)c3nc4ccc(F)cn4c(=O)c3-c3cccc(F)c3)c3ncnc(N)c23)s1 (stereo not drawn) [WX026]	–	–	–	7.47	5.65	–	0.263	0.146	1.99	–	–	–	5260	2406	–	–	–	–	–
COc1ccc(-c2nn(C(C)c3nc4ccc(F)cn4c(=O)c3-c3cccc(F)c3)c3ncnc(N)c23)cn1 (single isomer, unassigned) [WX012]	6.24	< 5.00	< 5.00	7.27	5.69	–	0.256	0.192	–	–	–	–	3180	2820	–	–	–	–	–
